# Measured values published in US12178867B2, “MHC class i associated peptides for prevention and treatment of multiple flavi virus” (priority 2018, dated 2024).
# Legend:
# [1] = tested on: peptide loaded HepG2 cells; test: CTL assay: peptide-stimulated PBMCs of naive HLA-A24+ donor co-cultured with peptide loaded HepG2 cells, flow cytometry (FIG. 4); format: cell-based, human; details: blank HepG2 cells as control
# Method: FIG. 4: Utilizing a healthy (naive) human HLA-A24+ donor, peripheral blood mononuclear cells (PBMCs) were stimulated with peptide epitopes in a cytokine cocktail to induce antigen specific CTL response. These stimulated PBMCs were then assayed by co-culturing peptide loaded targets for antigen specific response. Hep2G cells were used for peptide loading, and blank Hep2G cells used as control. Also used was HepG2 cells infected with Dengue (DV2) and Zika. Expanded PBMCs were assayed for both CD8/IFNg double expression by flow cytometry. All 4 peptide epitopes induced CD8+ IFNg expression to peptide loaded HepG2 cells in a peptide specific manner. […] FIG. 5: Transgenic A2 mice were immunized with 200 ng of NP-Dengue peptides. The spleen cells were isolated and then exposed to either Zika or Dengue infected cells. […] Acid stripping of the peptides makes the cells non-response.
# In a further experiment, utilizing a healthy (naive) human HLA-A24+ donor, peripheral blood mononuclear cells (PBMCs) were stimulated with peptide epitopes in a cytokine cocktail to induce antigen specific CTL response. These stimulated PBMCs were then assayed by co-culturing peptide loaded targets for antigen specific response (FIG. 4). Hep2G cells were used for peptide loading, and blank Hep2G cells used as control. Also used was HepG2 cells infected with Dengue (DV2) and Zika. […]
# peptide loaded T2 cells = test: CTL assay: peptide-stimulated PBMCs of naive HLA-A2+ donor co-cultured with peptide loaded T2 cells, flow cytometry (FIG. 3A); format: cell-based, human
# Method: FIGS. 3A and 3B: (FIG. 3A) Utilizing a healthy (naive) human HLA-A2+ donor, peripheral blood mononuclear cells (PBMCs) were stimulated with peptide epitopes in a cytokine cocktail to induce antigen specific CTL response. These stimulated PBMCs were then assayed by co-culturing peptide loaded targets for antigen specific response. TAP-deficient cells (T2) were used for peptide loading, and blank T2 cells used as control. Expanded PBMCs were assayed for both CD107a degranulation and interferon gamma (IFN-g) markers by flow cytometry. All 6 peptide epitopes induced CD8+ CD107a and IFNg expression to peptide loaded T2 cells in a peptide specific manner. […] (FIG. 3B) Utilizing a healthy (naive) human HLA-A2+ donor, peripheral blood mononuclear cells (PBMCs) were stimulated with peptide epitopes in a cytokine cocktail to induce antigen specific CTL response. These stimulated PBMCs were then assayed by co-culturing with Hep2G infected cells (DV2/Zika). Uninfected HepG2 cells were used as control. Expanded PBMCs were assayed for both CD107a degranulation and interferon gamma (IFN-g) markers by flow cytometry.
# In one experiment, utilizing a healthy (naive) human HLA-A2+ donor, peripheral blood mononuclear cells (PBMCs) were stimulated with peptide epitopes in a cytokine cocktail to induce antigen specific CTL response. […]
sequence,measurement,setting,value
PMAAVGLLIVS (listed as Dengue virus) [SEQ ID NO: 2],CD8+ IFNg expression to peptide loaded HepG2 cells,[1],particular pronounced IFNg+ effect
same,IFNg+ effect,peptide loaded T2 cells,particular pronounced IFNg+ effect
